Assay results reported in patent publication US20100254902A1, “STABILIZATION OF RADIOPHARMACEUTICALS” (priority 2008, published 2010).

Test: Radiochemical purity (RCP) of [^18F]FDG composition by TLC, stability testing
Experimental: Radiochemical purity of [^18F]FDG composition samples was determined at end of synthesis (EOS) and at Expiry i.e. after 10 hours storage at 22° C.±3° C. to determine stability of the composition.
To a series of vials was added an amount of stabilizer dissolved in Buffer.
At EOS (within 2 hours), a 100-fold dilution of the test solution was prepared by addition of a 10 μl sample to a 990 μl volume of water for injection. After mixing, a 2 μl sample was applied to a TLC strip.
At 10 hours after synthesis, a 10-fold dilution was made by addition of a 20 μl sample to a 180 μl volume of water for injection. After mixing, a 3 μl sample was applied to a TLC strip.
Within 1 to 3 hours after manufacture, radiochemical purity (RCP) was determined by TLC. The vials were stored at 22° C.±3° C. and at 10 hours after synthesis, RCP was again determined by TLC.

Structure (SMILES): CC(C)=O [Acetone, reference compound]
- stabilising effect on [^18F]FDG composition (conclusion) (Example 1, additives 2.5-20 mg/ml acetone or ethanol, 3-6 mg/ml gentisic acid): slight stabilising effect

Structure (SMILES): O=C(O)c1cc(O)ccc1O [gentisic acid, 2,5-dihydroxybenzoic acid]
- RCP at EOS+10 h, difference GA versus ethanol (Example 5, vial 6 versus vial 5): 1%
- stabiliser quality compared with ethanol (conclusion) (Example 5, vial 6 versus vial 5, approximately 2 mg/ml stabilizer): better stabiliser than ethanol
- effect of increasing amounts of gentisic acid on stabilisation of [^18F]FDG (Examples 2-4, batches <50 GBq at EOS, ranges 0.1-0.5, 0.5-1 and 1-2 mg/ml): the higher amount was found to be more effective
